The results in this text go back to US4721715A, “Derivatives of 4-(arylpiperazinyl-ethylaminoethoxy) phenol useful for effecting hypolipidemic therapy or cardiovascular therapy” (Societe Cortial, S.A., priority 1984, dated 1988).

Structures can show the parent of a compound that is named as a salt. Where two headings read alike, the source gives them in different places.

Data set [1] can be described thus: Toxicity, oral administration to mice. The data set is classed as in vivo. Particulars: mouse, in vivo, oral route, confidence interval in parentheses.
A short description of data set [2]: Toxicity, intravenous administration to mice. In kind it is in vivo. As to conditions: mouse, in vivo, intravenous, read-out: mortality rate.
In data set [3] the test system is mice. As to the kind of experiment: Toxicity, intravenous administration to mice. In kind it is in vivo. Particulars: intravenous, 6.2 mg/kg.
Data set [4] has as its system norepinephrine-induced mydriasis. Put plainly: Alpha-blocking activity in vivo: inhibition of norepinephrine-induced mydriasis in mice. As to conditions: 30 min before 0.75 mg/kg norepinephrine IV. How it is done:
(§1) Alpha-blocking activity was determined in vivo in mice with the test involving inhibition of mydriasis induced by norepinephrine. […] Thirty minutes later, 0.75 mg/kg norepinephrine was administered intravenously. […] In vivo alpha-blocking activity was also evaluated by determination of antagonism of phenylephrine-induced hypertension. The test products were administered by the intravenous route to rats that had undergone spinal cord removal and bivagotomy according to the technique by J. S. Gillespie and T. S. Muir (Br. J. Pharmac. Chemother. 30:78-87, 1967). The dosage, maximum activity, and the interval after which residual activity was equal to 50% of the maximum activity are presented below: […]

For data set [5], the system named is phenylephrine-induced hypertension. As to the kind of experiment: Alpha-blocking activity in vivo: antagonism of phenylephrine-induced hypertension in rats with spinal cord removal and bivagotomy. Particulars: Rattus norvegicus, intravenous. As for the experimental part:
as §1

Data set [6] deals with spontaneously hypertensive rats. Put plainly: Antihypertensive activity, spontaneously hypertensive rats, oral, arterial pressure at the tail. In kind it is in vivo. Particulars: 100 mg/kg. How it is done:
In another experiment that was also performed with oral administration in spontaneously hypertensive rats, arterial pressure was measured indirectly at the tail two, four and six hours after administration.

Data set [7] concerns climbing induced by apomorphine. Put plainly: Neuroleptic activity: climbing test (apomorphine) in mice. The data set is classed as in vivo. As to conditions: apomorphine 1.5 mg/kg. As for the experimental part: The neuroleptic activity of COR 2865 was determined in the climbing test. […] They were given 1.5 mg/kg apomorphine in order to induce a maximum climbing level.
Data set [8] deals with mice with hypercholesterolemia. Put plainly: Hypolipidemic activity in mice with diet-induced hypercholesterolemia. Particulars: oral 100 mg/kg on the sixth and seventh day. In kind it is in vivo. As for the experimental part: Hypolipidemic Activity: In mice with hypercholesterolemia produced by a diet high in cholesterol and cholic acid fed for seven days, administration of an oral dose of 100 mg/kg COR 2865 on the sixth and seventh day brought about a reduction in serum cholesterol of 31% and a reduction of HP-betalipoproteins of 38% as well as a decrease in the VLDL+LDL/cholesterol ratio.

Data set [9] deals with mice. As to the kind of experiment: Toxicity, intraperitoneal administration to mice.
The test system of data set [10] is stereotypy induced by apomorphine. Put plainly: Neuroleptic activity: inhibition of apomorphine-induced stereotypy in rats. As to conditions: 100 mg/kg intraperitoneal, apomorphine 2.5 mg/kg subcutaneous.
Data set [11] concerns Alpha-1. Put plainly: Alpha-1 blocking activity in vitro: antagonism of norepinephrine-induced contractions of isolated rabbit aorta strips. As to conditions: norepinephrine 2.10^-6 mol/1.
Data set [12] relates to left guinea pig auricle. As to the kind of experiment: Anticalcium activity: electrically stimulated left guinea pig auricle, calcium-induced contraction force. Particulars: 25.10^-6 g/ml; 0.6 mM calcium added; 150 beats/min, low calcium Tyrode's solution.
Data set [13] concerns strips of mesenteric veins. As to the kind of experiment: Anticalcium activity: calcium-induced increment of spontaneous contractions in mesenteric vein strips. Particulars: 5.10^-6 g/ml, rats with normal blood pressure. The text has this:
At 5.10^-6 g/ml, COR 2838 inhibited the calcium-induced increment of spontaneous contractions in strips of mesenteric veins from rats with normal blood pressure.

The subject of data set [14] is passive cutaneous anaphylaxis. Put plainly: Passive cutaneous anaphylaxis test in rats. The data set is classed as in vivo. Particulars: intravenous, 10 mg/kg. How it is done:
Antiallergy-Antihistamine Activity: In the passive cutaneous anaphylaxis test, COR 2833 and COR 2838 given to rats in an intravenous dose of 10 mg/kg produced 53 and 60% activity, respectively. Under the same conditions, COR 2831 produced 67% activity in an oral dose of 5 mg/kg.

Data set [15] concerns isolated guinea pig ileum (histamine). As to the kind of experiment: Antihistamine activity in vitro: histamine-induced contractions of isolated guinea pig ileum. As to conditions: 10^-5 g/ml; histamine 5.10^-7 g/ml.
Data set [16] deals with isolated guinea pig ileum (serotonin). As to the kind of experiment: Antiserotonin activity in vitro: serotonin-induced contractions of isolated guinea pig ileum. As to conditions: 4.10^-7 g/ml; serotonin 10^-6 g/ml. From the text:
Antiserotonin Activity: In vitro, contractions induced in isolated guinea pig ileum by 10^-6 g/ml serotonin were inhibited by COR 2838 in a concentration of 4.10^-7 g/ml and COR 2831 and COR 2833 in a concentration of 2.10^-6 g/ml.

Data set [17] is described as follows: Solubility and hygroscopicity of the isolated product. In kind it is physicochemical. Particulars: dihydrochloride. How it is done: A solution of 6 g 4-isopropyl-2-methyl-4-methylaminoethoxy phenol and 6 g 1-chloroethyl-4-phenylpiperazine in 10 ml triethylamine and 150 ml ethyl alcohol is heated for 20 hours in a reflux system. The excess ethyl alcohol and triethylamine are evaporated. The residue is taken up in an aqueous solution of hydrochloric acid. The solution obtained is extracted with chloroform. The aqueous phase is alkalized with ammonia and then extracted again with chloroform. After drying and evaporation of the chloroform, 9.3 g of crude product is obtained. This is purified by silica chromatography using as the eluent pure chloroform followed by a mixture of 98% chloroform and 2% methanol. This procedure yield 4.6 g of free base; yield, 42%. The latter is transformed into a hydrochloride by a saturated ethyl ether solution in gaseous hydrochloric acid. This produces a white solid which is filtered and washed with a little ethyl ether.

Usually LD50 stands for the dose at which mortality reaches 50%. A word on the mortality: it is the share of the test organisms that died. One may read the ED50 as the dose that gives a 50% effect, or the effect in half of the subjects. In the case of `CCOc1ccccc1N1CCN(CCOc2cc(C)c(O)cc2C(C)C)CC1` [COR 2865, 5-Isopropyl-2-methyl-4-((2-ethoxyphenyl)piperazinylethoxy) phenol hydrochloride], in data set [1], the LD50 was found to be 1440 mg/kg. Besides, the mortality in data set [2] (12.5 mg/kg) amounted to 10%; in data set [2] (25 mg/kg), 20%; in [2] (50 mg/kg), 5%; in data set [2] (100 mg/kg), 90%. The deaths result is “no deaths” in data set [3] and “no deaths” in data set [9] (mice, intraperitoneal dose of 200 mg per kg). In addition, the inhibition of mydriasis is on record as 54% in data set [4] (1 mg/kg intraperitoneal) and 80% in data set [4] (2.5 mg/kg intraperitoneal). In addition, the ED50 in data set [5] (2 min, after 2 min) was 0.0117 µmol/kg; in [5] (0.5 h, after 30 min) it was 0.318 µmol/kg; in data set [5] (1 h, after 60 min) it was 0.5 µmol/kg. For the same compound, the inhibition in vivo at 1 µM, 1 µmol/kg in data set [5] (10^-6 M/kg, read-out: maximum activity (antagonism of phenylephrine-induced hypertension)) turned out to be 122%. Also, the pressure reduction in data set [6] (four hours after administration) is given as 21%; in [6] (six hours after administration) it was 23%; in [6] (two hours after administration) it was 19%. The results for the “inhibition of the climbing induced by apomorphine” value in data set [7] (10 mg per kg intraperitoneal) and in data set [7] (25 mg/kg intraperitoneal) were 83% and 100%, respectively. For the same compound, the “reduction in serum cholesterol” value in [8] is 31%. The “reduction of HP-betalipoproteins” value in data set [8] amounted to 38%. For the same compound, the “inhibition of apomorphine-induced stereotypy” value in data set [10] was 67%.
In the case of `Cc1cc(OCCN(C)CCN2CCN(c3ccccc3)CC2)c(C(C)C)cc1O` [COR 2838, 5-Isopropyl-2-methyl-4-((N-methyl N-2-(phenylpiperazinyl-ethyl)amino)ethoxy) phenol dihydrochloride], the “interval between introduction of the test product and of the […] into the bath, which corresponds to the maximum activity” value in data set [11] came to 60 min. For the same compound, the inhibition in vivo at 3 µmol/kg in data set [5] (3.10^-6 M/kg, read-out: maximum activity (antagonism of phenylephrine-induced hypertension)) was determined as 60%. Also, in [12], the “inhibition of the increment in the contraction force induced by calcium” value is recorded as 50%. Further, the “inhibition of calcium-induced increment of spontaneous contractions” value in data set [13] is “inhibited”. Further, the “activity in the passive cutaneous anaphylaxis test” value in data set [14] came out at 60%. For the same compound, the “inhibition of histamine-induced contractions” value in data set [15] came to 80%. Besides, the “inhibition of serotonin-induced contractions” value in data set [16] is recorded as “inhibited”. For the same compound, in data set [17], the hygroscopicity result is “hygroscopic” and the solubility in water entry is on record as “soluble in water”. In addition, the deaths result in [9] (mouse, in vivo, ip, 50 mg/kg) was “no deaths”.
